Laboratory results published in publication PMC9363195, “Preclinical Pharmacokinetics, Biodistribution, and Acute Toxicity Evaluation of Caerin 1.9 Peptide in Sprague Dawley Rats” (Evidence-based Complementary and Alternative Medicine : eCAM, 2022).
Entries after “also recorded” stand apart in the source; their conditions may differ. Read-outs that look alike come from different tables or passages of the source. Peptide text beside a SMILES is read from it.

Legend:
Assay type in all cases: in vivo, Sprague Dawley rats
SD rats [1] = assay: Histopathologic examination (H&E) of vital organs; details: s.c. 10.0 mg/kg daily x14 d
Excerpt: After blood was collected at the predetermined time points, all rats were euthanized and subjected to a comprehensive general autopsy, which included a thorough examination of the external surface of the body, all foramen, cranial cavity, external surface of the brain, chest, abdomen, pelvic cavity, viscera, cervix, and genitalia. The adrenal gland, brain (brain, cerebellum, and brain stem), epididymis, heart, kidney, liver, ovary, spleen, testis, thymus, thyroid gland, and uterus were carefully collected, weighed, and documented before being kept in 10% neutral formalin buffer (10% NBF).
The H&E staining was followed as reported elsewhere. Following formalin fixation, the important tissues were dehydrated, stained with hematoxylin (about 15 minutes) and eosin (1–3 minutes), dehydrated again with gradient alcohol, clarified in xylene, and then examined and recorded under the microscope.

SD rats [2] = assay: Functional observation (mortality, clinical signs) in acute toxicity study; details: for mortality: single s.c. 1.0, 10.0, 100 mg/kg or 10.0 mg/kg daily x14 d, cage observation
Experimental: The mortality, general health status, and toxic reaction symptoms of the experimental groups were documented. Before the first day of F3 administration and during the experiments, a detailed clinical observation was carried out and recorded the changes in skin, eyes and mucous membrane, respiratory system, nervous system, activity, and behaviors of the rats. The body weight was measured and recorded before the first day of administration.
Forty SD rats (20 males and 20 females) were randomly divided into 4 groups (Figure 1). All rats were given F3 once on the day of the experiment.
Twelve SD rats (6 males, 6 females) were given a daily subcutaneous injection of F3 at a dose of 10.0 mg/kg for consecutive 14 days. The first day of administration was recorded as day 1.

SD rats [3] = assay: Food intake and body weight gain in acute toxicity study; details: single or repeated s.c. injection
Experimental: For 14 days, the body weight was measured before F3 administration on the first day of the experiment and once a week thereafter, with additional measurements on the day before and on the day of the planned autopsy. Food intake was recorded once a week. The rats were anesthetized by inhalation of 70% CO2/30% O2 before dissection, and blood samples were taken for hematology and biochemical analysis. The collected tissue was weighed and preserved for pathological examination.

[4] = Tissue distribution of single subcutaneous injection of F3 (1.0 mg/kg); details: LC-MS/MS; for F3 in tissue samples (heart, brain, liver, kidney, lung, spleen, stomach, small intestine, testis, ovaries, subcutaneous fat, skeletal muscle): single s.c. 1.0 mg/kg, 1, 2, 4, 8, 24, 48 h, LOQ in tissues 40–80 ng/g; for level at 4 h / level at 1 h / level at 2 h: Sprague-Dawley, rat, plasma, sc, n=3, read-out: F3 concentration in plasma; for level at 4 h: 4th hr; for level at 1 h: 1 hour after administration; for level at 2 h: mean
Experimental: (§1) The concentration of F3 in rat plasma was determined by liquid chromatography-tandem mass spectrometry, using the method established by Kanglong Huacheng Co., Ltd. The analyte was assayed by liquid chromatography coupled with the tandem mass spectrometry (LC-MS/MS) method. The LC-MS/MS system consisted of a Shimadzu HPLC system (Kyoto, Japan) and an LCMS-8060 instrument (serial no. 011105500332 AE). The following were the LC conditions: column, HALO ES-C18 2.7 µ C18 160A (50 × 2.1 mm); gradient elution at 0.5 mL/min with 5% acetonitrile in water containing 0.1% formic acid or 95% acetonitrile in water containing 0.1% formic acid; and injection volume of 10 µL. A multiple reaction monitoring (MRM) method was selected for quantitative analysis. For analyte and internal standard, the optimum transitions were 519.50 > 129.15 (five charges) and 649.15 > 120.10 (four charges), 393.20 > 373.25, and 237.15 > 194.15, respectively. The instrumental parameters were set as follows: nebulizing gas flow was 3 L/min; heating gas flow was 10 L/min; interface temperature was 300°C; DL temperature was 250°C; and heat block temperature was 400°C.
Thirty-six SD rats (18 females, 18 males) were randomly selected and given a single subcutaneous injection of F3 at 1.0 mg/kg. Tissue samples were collected at 1, 2, 4, 8, 24, and 48 hours after F3 administration. At each time point, six rats (3 of each sex) were sacrificed. At least 0.5 ml of whole blood was collected before euthanasia, and 0.5–1.0 g of tissue was collected after euthanasia. The heart, brain, liver, kidney, lung, spleen, stomach, small intestine, testis, ovary, subcutaneous fat, and skeletal muscle were among the tissue types studied.
The desired serial concentrations of working solutions were achieved by diluting stock solution (1 mg/mL in DMSO) of analyte with 50% acetonitrile in water. 5 μL of working solutions (10 to 10000 ng/mL) were added to 50 μL of the blank rat plasma and tissues to achieve calibration standards or quality control (QC) samples of 1 to 1000 ng/mL in a total volume of 55 μL.
The resulting standard, QC, or study samples were added to 200 μL of methanol containing IS (50 ng/mL dexamethasone, 2 ng/mL verapamil and 2 ng/mL carbamazepine as internal standard (IS) for protein precipitation. All samples were then vortexed for 30 seconds. After centrifugation at 4°C and 4000 rpm (ca. 3740 x g) for 15 minutes, 100 µL of the supernatant was diluted with 200 µL of water for injection on LC-MS/MS.

[5] = Pharmacokinetics of single subcutaneous injection of F3 (1.0 mg/kg); details: single s.c. 1.0 mg/kg, plasma, LC-MS/MS; for AUC(0-inf) / AUC(0-t) / Cmax / Tmax / half-life / CL/F / MRT: Sprague-Dawley, rat, sc; for CL/F: read-out: Cl_F_obs (clearance rate) (converted); for MRT: read-out: MRTInf_obs (mean residence time)
Experimental: A single subcutaneous injection of 1.0 mg/kg F3 was given to a total of 12 SD rats (6 females, 6 males). Before and after F3 administration, whole blood samples were collected at predetermined time intervals (0, 0.5, 1, 2, 4, 6, 8, 24, 48, 72, 96, 144, and 192 hr). At each time point, at least 0.5 ml blood samples were taken alternatively from 3M/3F rats.
as §1
PK parameters were estimated by a noncompartmental model with the calculation model of “Linear Trapezoidal Linear Interpolation” using WinNonlin (Phoenix TM, version 8.1). If the plasma F3 was detected, the following pharmacokinetic parameters were measured and calculated: Cmax (maximum blood concentration), Tmax (peak time), T1/2 (elimination half-life), AUC (area under plasma concentration-time curve), Vz_F_obs (apparent distribution volume), Cl_F_obs (clearance rate), and MRTInf_obs (mean residence time).

[6] = female SD rats, single s.c. 1.0 mg/kg
[7] = male SD rats, single s.c. 1.0 mg/kg

SMILES: CC[C@H](C)[C@H](NC(=O)[C@H](CO)NC(=O)CNC(=O)[C@H](CC(C)C)NC(=O)[C@@H](NC(=O)CNC(=O)[C@H](Cc1ccccc1)NC(=O)[C@H](CC(C)C)NC(=O)CN)C(C)C)C(=O)N[C@@H](C)C(=O)N[C@@H](CCCCN)C(=O)N[C@@H](Cc1c[nH]cn1)C(=O)N[C@H](C(=O)N[C@@H](CC(C)C)C(=O)N1CCC[C@H]1C(=O)N[C@@H](Cc1c[nH]cn1)C(=O)N[C@H](C(=O)N[C@H](C(=O)N1CCC[C@H]1C(=O)N[C@H](C(=O)N[C@H](C(=O)N[C@@H](C)C(=O)N[C@@H](CCC(=O)O)C(=O)N[C@@H](CCCCN)C(=O)N[C@@H](CC(C)C)C(N)=O)[C@@H](C)CC)C(C)C)C(C)C)C(C)C)C(C)C [F3, Caerin 1.9] (H-GLFGVLGSIAKHVLPHVVPVIAEKL-NH2)
- histopathologic examination of essential organs (SD rats [1]): no apparent abnormalities
- clinical observation: scabs at the injection site (SD rats [2]; s.c. 10.0 mg/kg daily x14 d, 6 M/6 F): scabs were discovered at the injection site in one female rat, three female rats, and two male rats on the 8th, 12th, and 15th days, respectively
- clinical observation (fur, eyes, mucosa, respiratory, circulatory, nervous system, behaviors) (SD rats [2]; single s.c. 1.0 mg/kg or 10.0 mg/kg): no abnormalities
- clinical observation: dorsal scabs (SD rats [2]; single s.c. 100.0 mg/kg, 5 M/5 F): one male and two female rats on day 8 and two female rats on day 15 developed dorsal scabs
- mortality (SD rats [2]): no rats receiving F3 were found dead or dying; also recorded: No dead or dying rats were observed
- mortality (SD rats [2]; listed as Caerin 1.9): does not cause mortality or organ malfunction
- effect on food intake, body weight, and weight change (SD rats [3]): no effect
- F3 in tissue samples (heart, brain, liver, kidney, lung, spleen, stomach, small intestine, testis, ovaries, subcutaneous fat, skeletal muscle) ([4]; SD rats, 1 mg/kg): No detectable F3
- F3 in tissue samples (heart, brain, liver, kidney, lung, spleen, stomach, small intestine, testis, ovaries, subcutaneous fat, skeletal muscle) ([4]; SD rats, listed as Caerin 1.9, 1 mg/kg): < 40 ng/g
- F3 in plasma samples collected at other time points ([4]; SD rats, single s.c. 1.0 mg/kg, time points other than 1, 2, 4 h (8, 24, 48 h)): No detectable F3
- level at 4 h [4, 6]: 19.4 ± 5.96 ng/mL
- level at 1 h [4, 6]: 174 ± 43 ng/mL
- level at 2 h [4, 6]: 49.7 ± 1.71 ng/mL
- level at 4 h [4, 7]: 20 ± 9.73 ng/mL
- level at 1 h [4, 7]: 165 ± 46.5 ng/mL
- level at 2 h [4, 7]: 104 ± 25.5 ng/mL
- AUC(0-inf) ([5]; female SD rats): 222 ng·h/mL
- AUC(0-t) ([5]; female SD rats): 216 ng·h/mL
- Cmax ([5]; female SD rats): 110 ng/mL
- Tmax ([5]; female SD rats): 0.5 h
- half-life ([5]; female SD rats): 0.677 h
- CL/F ([5]; female SD rats): 75.1 mL/min/kg
- MRT ([5]; female SD rats): 1.42 h
- AUC(0-inf) ([5]; male SD rats): 686 ng·h/mL
- AUC(0-t) ([5]; male SD rats): 661 ng·h/mL
- Cmax ([5]; male SD rats): 256 ng/mL
- Tmax ([5]; male SD rats): 1 h
- half-life ([5]; male SD rats): 1.16 h
- CL/F ([5]; male SD rats): 24.3 mL/min/kg
- MRT ([5]; male SD rats): 2.05 h
- AUC_%Extrap_obs ([5]; female SD rats): 2.88%
- T max ([5]; female SD rats): 0.5 h
- T max ([5]; male SD rats): 1 h
